The source of these data is patent US8110681B2, “Compounds for the treatment of spinal muscular atrophy and other uses” (The United States of America as represented by the …, priority 2006, dated 2012).

Data set [1] deals with SMN-containing gems in fibroblast cells from a type 1 SMA patient (3813 cells). Briefly: Gem count by immunohistochemistry in type 1 SMA patient fibroblasts (3813 cells). The format is cell-based, human. To be noted: for Number of gems per 100 nuclei, Treated Cells: 48 hours. The source says: SMN protein can be found in punctate nuclear particles called “gems” (Liu and Dreyfuss, EMBO J. 15(14): 3555-3565 (1996)). In fibroblast cells derived from SMA patients, the number of gems corresponds to disease severity as follows: severe type 1 patients have approximately 5 gems per 100 nuclei; mild type 3 patients have 20-50 gems per 100 nuclei; normal individuals have approximately 100-150 gems per 100 nuclei (Coovert et al., Hum Mol Genet 6(8): 1205-1214 (1997), Young et al., Exp Cell Res 265(2): 252-261 (2001)).
Following these methods, fibroblast cells from a type 1 SMA patient (3813 cells, Coriell Cell Repositories) were treated for 48 hours with the compounds indicated in Table 2 (reference number—structure correlation is provided in Table 1). The cells were then fixed and incubated with a monoclonal antibody against SMN (4B7, Wolstencroft et al., Hum Mol Genet 14:1199-1210 (2005)). A FITC-conjugated anti-mouse secondary antibody was used to visualize the labeled gems.

A further data set deals with SMN. Briefly: Western blot of SMN in SMA type I fibroblasts (3813 cells). The format is cell-based, human. The settings on record: 48 hours, DMSO = 1. The procedure:
Westerns blots were performed using the methods of Mattis et al., Hum Genet 120:589-601(2006)). SMA type I fibroblasts (3813 cells; Coriell Cell Repositories) were treated with compounds for 48 hours. Monoclonal anti-SMN antibody 4B7 (Wolstencroft et al., Hum Mol Genet 14:1199-1210 (2005)) was used to identify SMN. Actin was used as an internal normalization standard and detected with an anti-actin polyclonal rabbit antibody (Sigma-Aldrich). Tobramycin was used for the positive control compound treatment. DMSO is the untreated negative control. Values are presented as the ratio of the signals obtained for SMN and Actin.

Data set [2] concerns luciferase reporter containing the UAG stop codon. The experiment in a line: Translational read-through luciferase reporter assay, UAG stop codon. The format is cell-based. The settings on record: read-out: MaxFold Increase. The source says: This assay is described in detail in WO 01/44516 A2. This is a cell-based luciferase reporter assay designed to detect translational read-through via insertion of a translational stop codon within the luciferase coding sequence. In the presence of compounds that promote read-through of translational stop codons, active luciferase is produced and detected via chemiluminescence. We have shown that indoprofen analogs are active in two versions of this assay—one containing a UGA stop codon and one containing a UAG stop codon. The data in the table is from the luciferase reporter containing the UAG stop codon. This is the first stop codon downstream of the improper splice junction between exons 6 and 8 in the human SMN2 transcript.

The subject of data set [3] is SMN2-linked luciferase-reporter gene construct. Briefly: SMN splice reporter assay (SMN2-linked luciferase reporter, Example 10). The format is cell-based. To be noted: for maximal fold induction: read-out: SMN Splice Reporter Assay (Example 10) Avg MaxFold Increase. In outline: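 Values are fold-increase in luciferase signal relative to baseline cells without compound. The cervical carcinoma line used holds a fusion of alternatively spliced SMN2 sequence and luciferase. Readable frame, and thus signal, arises only with exon 7-including splicing.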

Data set [4] can be described thus: Plasma and brain pharmacokinetics in mice. The format is in vivo, FVB or CD-1 mice. To be noted: 5 mg/kg, oral, single dose; for Kp / half-life / AUC: mouse; for Kp: brain and plasma, read-out: Brain/Plasma Ratio. The method, then: Compounds were formulated in solution using the method of cosolvency as described by Lee et al., Int. J. Pharmaceutics, 253: 111-119 (2003). FVB or CD-1 mice, approximately 5 weeks old, were given a single dose of compound at the indicated concentration. Compounds were administered orally, with the exception of ALB-116638 and ALB-117573, which were administered IV. Three to five mice were euthanized at various times between 15 minutes and 24 hours after dosing and brain and plasma were harvested. Tissues were homogenized in acetonitrile and analyzed on an API 4000 LC/MS/MS system coupled with an Agilent 1100 series liquid chromatograph. All pharmacokinetic analyses were conducted using WinNonlin (Version 4.01; Pharsight, Palo Alto, Calif.) with the exception of brain/plasma ratios, which were calculated using Microsoft Excel 2000. AUC values are the area under the concentration-time curve from time zero to the last measured time point. The half life values are extrapolated from 3-4 time points taken at less than 4 hours after dosing.

In data set [5] the test system is human GLT-1/EAAT-2 promoter. Briefly: GLT-1/EAAT-2 promoter luciferase reporter assay in COS-7 cells. The format is cell-based. To be noted: COS-7 pE2P-GL3 (clone 4), 48 h; for maximal fold induction: Homo sapiens, normalized to DMSO control, read-out: Max Fold-Induction. The procedure:
The astroglial glutamate transporter, GLT-1/EAAT-2, is responsible for the majority of glutamate transport in the brain and spinal cord. […] Results from each plate were normalized to the DMSO treated control wells and expressed as fold-induction. EC50 values were calculated using GraphPad Prism software.

Another data set deals with SMN protein. The settings on record: cited from earlier work.
The test system of the next data set is SMA model mouse fetuses. To be noted: administered in utero; cited from earlier work.
Where [6] appears, read: SMN2-linked luciferase reporter, average.
Where [7] appears, read: brain, read-out: Brain T½ (converted).
[8] abbreviates: plasma, read-out: Plasma T½ (converted).
The mark [9] stands for this setting: maximum fold increase of reporter signal, average.

“And” between values parts separate entries of the source, which are not always exact repeats. Identical values can stand only once. Like-named read-outs stand apart in the source and are kept apart here.

`CCCC(CCC)C(=O)O` [Positive Control, valproic acid, reference compound]: the “Number of gems per 100 nuclei, Positive Control” value in [1] (1000 μM valproic acid, same patient fibroblasts) is 31 gems per 100 nuclei and 38.7 gems per 100 nuclei.
For the compound `NC[C@H]1O[C@H](O[C@H]2[C@H](O)[C@@H](O[C@H]3O[C@H](CO)[C@@H](O)[C@H](N)[C@H]3O)[C@H](N)C[C@@H]2N)[C@H](N)C[C@@H]1O` [Tobramycin, reference compound], in the data set on SMN (320 uM, positive control), the “SMN:Actin Ratio” value worked out at 1.5.
For `CC(C)c1ccc(N2Cc3ccc(OC(F)F)cc3C2=O)cc1` [ALB-116244], in data set [1] (0.1 μM), the “Number of gems per 100 nuclei, Treated Cells” value is listed as 44 gems per 100 nuclei. Also, the maximal fold induction in data set [2] was 2.8; in [3] (SMN2-linked luciferase reporter, average maximum fold increase), 1.57. In [3] (setting [6]), the EC50 came out at 599 nM.
Compound `COCC(C)c1ccc(N2Cc3ccc(OC)cc3C2=O)cc1` (stereo not drawn) [Example 4, 6-methoxy-2-(4-(1-methoxypropan-2-yl)phenyl)isoindolin-1-one] registered a melting point of 116 to 118 °C.
In the case of `CC(C)c1ccc(N2Cc3cc4c(cc3C2=O)OCCO4)cc1` [ALB-115498], in [4], the “Brain AUC” value was 163.8 ng·h/g. In data set [4], the Kp was 3.43. The half-life in [4] (setting [7]) is 0.5 h; in data set [4] (setting [8]), 0.6 h. Further, the AUC in data set [4] (plasma) came out at 47.8 ng·h/mL. In addition, the “Number of gems per 100 nuclei, Treated Cells” value in [1] (1 μM) is reported as 14.3 gems per 100 nuclei. The maximal fold induction in [5] is 0.86; in data set [3] (setting [9]), 1.83. Besides, in data set [3] (setting [6]), the EC50 is 203 nM.
As for `CC(C)c1ccc(N2Cc3ccc(N(C)C)cc3C2=O)cc1` [ALB-115806], the “Number of gems per 100 nuclei, Treated Cells” value in [1] (0.4 μM) came out at 8 gems per 100 nuclei. Besides, the maximal fold induction in data set [2] is 2; in data set [5], 0.87; in data set [3] (setting [9]) it was 1.47. In addition, the EC50 in data set [3] (setting [6]) turned out to be 41 nM.
For `CCCc1ccc2c(c1)C(=O)N(c1ccc(C(C)C(=O)O)cc1)C2` (stereo not drawn) [Example 2, 2-(4-(1-oxo-6-propylisoindolin-2-yl)phenyl)propanoic acid], the melting point was in the range of 175 to 177 °C.
Consider `CC(C(=O)O)c1ccc(N2Cc3ccccc3C2=O)cc1` (stereo not drawn) [Indoprofen], for which, in data set [2], the maximal fold induction worked out at 2.3. In addition, the “production of SMN from the endogenous SMN2 gene” value in the data set with SMN protein (SMA patient fibroblasts) was “increase in production of SMN”. Moreover, in the data set on SMN protein (cultured cells, Lunn et al. 2004), the “level of expression of SMN protein” value is recorded as “increases the level of expression of SMN protein”. Moreover, the “luciferase activity in SMN splice reporter assay” value in [3] (cervical carcinoma cell lines with SMN2-luciferase reporter) was “increases luciferase activity”. In the data set with SMA model mouse fetuses, the “survival of SMA model mouse fetuses” value is on record as “increase survival”.
Turning to `CC(C)c1ccc(N2Cc3ccc([N+](=O)[O-])cc3C2=O)cc1` [Example 6, 2-(4-isopropylphenyl)-6-nitroisoindolin-1-one], the melting point lay within 225 to 227 °C.
Same read-out and setting: the figure for `CC(C)c1ccc(N2Cc3ccc(Cl)cc3C2=O)cc1` [Example 5, 6-chloro-2-(4-isopropylphenyl)isoindolin-1-one] is 206 to 209 °C.
With `COc1ccc2c(c1)C(=O)N(c1ccc(C(C)C)cc1)C2` [ALB-115069], the “SMN:Actin Ratio” value in the data set with SMN (0.1 uM) stood at 4.3; in the data set with SMN (1 uM), 5.7. The “Number of gems per 100 nuclei, Treated Cells” value in data set [1] (1 μM) is reported as 45.25 gems per 100 nuclei. Besides, the EC50 in [3] (setting [6]) is 81 nM. In addition, in [3] (setting [9]), the maximal fold induction is 1.5.
As for `COc1ccc2c(c1)C(=O)N(c1ccc(C(C)C(=O)O)cc1)C2` (stereo not drawn) [ALB-112355], the “Brain AUC” value in [4] came to 570.0 ng·h/g. The Kp in data set [4] came to 0.03. The half-life in [4] (setting [7]) is 2.6 h; in data set [4] (setting [8]), 7.6 h. In addition, the AUC in data set [4] (plasma) came out at 21100 ng·h/mL. Moreover, in [1] (0.45 μM), the “Number of gems per 100 nuclei, Treated Cells” value is reported as 5.3 gems per 100 nuclei. Moreover, the maximal fold induction in data set [2] turned out to be 2.7; in data set [3] (setting [9]), 1.85. Moreover, in [3] (setting [6]), it took 83 nM to reach a half-maximal effect (EC50).
`CC(C(N)=O)c1ccc(N2Cc3ccccc3C2=O)cc1` (stereo not drawn) [ALB-112171]: the maximal fold induction in data set [2] is 2.2; in data set [5], 1.9; in data set [3] (setting [9]), 1.34. For the same compound, the EC50 in data set [5] came to 460 nM; in data set [3] (setting [6]), 6720 nM.
Take `CCCc1ccc2c(c1)C(=O)N(c1ccc(C(C)C(=O)O)cc1)C2` (stereo not drawn) [ALB-113310]: the “SMN:Actin Ratio” value with SMN (0.1 uM) is on record as 4.8; with SMN (1 uM), 6.2. The “Number of gems per 100 nuclei, Treated Cells” value in data set [1] (3 μM) turned out to be 53.5 gems per 100 nuclei. Besides, the maximal fold induction in data set [2] worked out at 3.7; in data set [3] (setting [9]) it was 2.1. This compound returned a 50% effective concentration (EC50) in [3] (setting [6]) of 49 nM.
